Assay results published in patent US20120055467A1, “METERED-DOSE INHALER AND METHOD OF USING THE SAME” (CHIESI FARMACEUTICI S.P.A., priority 2010, published 2012).

Test: Andersen Cascade Impactor (ACI) evaluation of pMDI spray drug delivery characteristics
Format: physicochemical
Description: Spray characteristics of the system were evaluated by an Andersen cascade impactor fitted with a USP throat (App. 1, USP 33). […] This was repeated twice. Pre- and post-shot weights were recorded. […] The solutions were analysed by using a UPLC/MS (Ultra Performance Liquid Chromatography/Mass Spectrometry) system for the determination of the drug deposition.

[1] = Ex 2/3, Standard MDI, single can, 0.22 mm orifice, mean, n=3
[2] = Ex 2, Dual MDI, Formulations 3+4, single 0.22 mm orifice, mean, n=2
[3] = Ex 3, Dual MDI, Formulation 3 + placebo Formulation 5, single 0.22 mm orifice, mean, n=3
[4] = Ex 5, Dual-MDI, Formulations 8+3, single 0.22 mm orifice, mean, n=3
[5] = Ex 19, dual reservoir-single orifice prototype (FIG. 14B)
[6] = Ex 19, dual reservoir-single orifice prototype (FIG. 14B), BDP/Formoterol 100/6 μg/25 μl + glycopyrronium bromide 12.5 μg/25 μl
[7] = Ex 20, triple reservoir-single orifice prototype (FIG. 16B)
[8] = Ex 20, triple reservoir-single orifice prototype (FIG. 16B), BDP/Formoterol + glycopyrronium bromide + budesonide 50 μg/25 μl

Q: Which “Delivered Dose” value (Ex 2/3, Standard MDI, single can (BDP 100 μg/50 μl or formoterol fumarate 6 μg/50 μl), 0.22 mm orifice, mean, n=3) does the source give for COc1ccc(C[C@@H](C)NC[C@H](O)c2ccc(O)c(NC=O)c2)cc1.COc1ccc(C[C@@H](C)NC[C@H](O)c2ccc(O)c(NC=O)c2)cc1.O=C(O)/C=C/C(=O)O [Formoterol, Formoterol fumarate] here?
A: 4.1 µg

Q: And the “FPD ≦ 5 μm” value [1]?
A: 2.1 µg

Q: And the FPF [1]?
A: 51.9%

Q: And the MMAD [1]?
A: 0.9 μm

Q: And the “Delivered Dose” value (Ex 2, Dual MDI, Formulation 3 (formoterol fumarate 6 μg/25 μl) + Formulation 4 (BDP 100 μg/25 μl, glycerol) mixed, single 0.22 mm orifice, mean, n=2)?
A: 3.2 µg

Q: What about the “FPD ≦ 5 μm” value [2] of the same compound?
A: 1.9 µg

Q: And the FPF [2]?
A: 61.1%

Q: And the MMAD [2]?
A: 2.1 μm

Q: And the “Delivered Dose” value (Ex 3, Dual MDI, Formulation 3 (formoterol 6 μg/25 μl) + placebo Formulation 5 (glycerol), single 0.22 mm orifice, mean, n=3)?
A: 4.2 µg

Q: What about the “FPD ≦ 5 μm” value [3] of the same compound?
A: 2.7 µg

Q: What about the FPF [3] of the same compound?
A: 64.0%

Q: What about the MMAD [3] of the same compound?
A: 1.5 μm

Q: And the “Delivered Dose” value (Ex 5, Dual-MDI, Formulation 8 (budesonide 400 μg/63 μl) + Formulation 3 (formoterol 6 μg/25 μl), single 0.22 mm orifice, mean, n=3)?
A: 3.5 ± 0.7 µg

Q: What about the “FPD ≦ 5 μm” value [4] of the same compound?
A: 1.9 ± 0.2 µg

Q: And the FPF [4]?
A: 53.6 ± 6.6%

Q: What about the MMAD [4] of the same compound?
A: 1.7 ± 0.1 μm

Q: And the “Delivered Dose” value [5]?
A: 3.6 µg

Q: And the FPD [5]?
A: 1.6 µg

Q: And the FPF [5]?
A: 44.3%

Q: What about the MMAD [5] of the same compound?
A: 1.3 μm

Q: And the “Metered Dose” value [6]?
A: 5.7 µg

Q: What about the “Delivered Dose” value [7] of the same compound?
A: 3.3 µg

Q: And the FPD [7]?
A: 1.1 µg

Q: And the FPF [7]?
A: 33.9%

Q: What about the MMAD [7] of the same compound?
A: 1.5 μm

Q: And the “Metered Dose” value [8]?
A: 5.2 µg

Q: Which “Delivered Dose” value [5] does the source give for C[N+]1(C)CCC(OC(=O)C(O)(c2ccccc2)C2CCCC2)C1 (stereo not drawn) [Glycopyrronium bromide] here?
A: 7.9 µg

Q: And the FPD [5]?
A: 3.5 µg

Q: And the FPF [5]?
A: 44.1%

Q: What about the MMAD [5] of the same compound?
A: 1.3 μm

Q: What about the “Metered Dose” value [6] of the same compound?
A: 11.3 µg

Q: What about the “Delivered Dose” value [7] of the same compound?
A: 6.9 µg

Q: And the FPD [7]?
A: 2.2 µg

Q: What about the FPF [7] of the same compound?
A: 32.4%

Q: And the MMAD [7]?
A: 1.4 μm

Q: And the “Metered Dose” value [8]?
A: 10.8 µg
